Experimental data taken from US3981999A, “Fish disease treatment” (Dainippon Pharmaceutical Co., Ltd., priority 1973, dated 1976).
Values after ≈ are worked out from the molar mass of the structure shown.

Tests used:
[1] = test system: Aeromonas salmonicida Hara-2; assay: MIC by broth serial dilution; assay type: cell-based; settings: HARA2, bouillon pH 7.2, 25°C, 48 hours, read-out: MIC
Procedure: (§1) The MIC (minimum inhibitory concentration) of a test compound was determined by the serial dilution method on various pathogenic microorganisms incubated under the following experimental conditions. The lowest concentration at which the visible growth of the organism was inhibited was considered as MIC. […]
(§2) the broth-dilution method bouillon, pH 7.2, except for Vibrio (3% NaCl-bouillon, pH 7.2), Pasteurella (2% NaCl-Brain Heart Infusion, pH 7.3 and Chondrococcus (TY medium, pH 7.3) 1 drop of a bacterial suspension per test tube (100 - 1000 minimal growing units in the medium) 25°C, except for Pseud. anguilliseptica (20°C)
(§3) 48 hours, except for Pseudo. anguilliseptica ([…])

[2] = test system: Aeromonas salmonicida Kawazu; assay: MIC by broth serial dilution; assay type: cell-based; settings: bouillon pH 7.2, 25°C, 48 hours, read-out: MIC
Procedure: as §1, §2, §3

[3] = test system: Pasteurella piscicida K-1; assay: MIC by broth serial dilution; assay type: cell-based; settings: Photobacterium damselae, K1; 2% NaCl-Brain Heart Infusion pH 7.3, 25°C, 48 hours; read-out: MIC
Procedure: as §1, §2, §3

[4] = test system: Aeromonas liquefaciens Y-62; assay: MIC by broth serial dilution; assay type: cell-based; settings: Aeromonas hydrophila, Y62; bouillon pH 7.2, 25°C, 48 hours; read-out: MIC
Procedure: as §1, §2, §3

[5] = test system: Aeromonas salmonicida Hara-1; assay: MIC by broth serial dilution; assay type: cell-based; settings: HARA1, bouillon pH 7.2, 25°C, 48 hours, read-out: MIC
Procedure: as §1, §2, §3

[6] = test system: Pasteurella piscicida Al-3; assay: MIC by broth serial dilution; assay type: cell-based; settings: Photobacterium damselae, AL3; 2% NaCl-Brain Heart Infusion pH 7.3, 25°C, 48 hours; read-out: MIC
Procedure: as §1, §2, §3

[7] = test system: Vibrio anguillarum K-3; assay: MIC by broth serial dilution; assay type: cell-based; settings: K3, 3% NaCl-bouillon pH 7.2, 25°C, 48 hours, read-out: MIC
Procedure: as §1, §2, §3

[8] = test system: Pseudomonas anguilliseptica S-1; assay: MIC by broth serial dilution; assay type: cell-based; settings: S1, bouillon pH 7.2, 20°C, 7 hours, read-out: MIC
Procedure: as §1, §2, §3

[9] = test system: Chondrococcus sp K-1; assay: MIC by broth serial dilution; assay type: cell-based; settings: TY medium pH 7.3, 25°C, 48 hours; read-out: MIC
Procedure: as §1, §2, §3

[10] = test system: Pseudomonas anguilliseptica T-2; assay: MIC by broth serial dilution; assay type: cell-based; settings: T2, bouillon pH 7.2, 20°C, 7 hours, read-out: MIC
Procedure: as §1, §2, §3

[11] = test system: Vibrio anguillarum Km-30; assay: MIC by broth serial dilution; assay type: cell-based; settings: KM30, 3% NaCl-bouillon pH 7.2, 25°C, 48 hours, read-out: MIC
Procedure: as §1, §2, §3

[12] = test system: Aeromonas salmonicida Kusuda; assay: MIC by broth serial dilution; assay type: cell-based; settings: bouillon pH 7.2, 25°C, 48 hours, read-out: MIC
Procedure: as §1, §2, §3

[13] = test system: Chondrococcus sp K-2; assay: MIC by broth serial dilution; assay type: cell-based; settings: TY medium pH 7.3, 25°C, 48 hours; read-out: MIC
Procedure: as §1, §2, §3

[14] = test system: Vibrio anguillarum A-8; assay: MIC by broth serial dilution; assay type: cell-based; settings: A8, 3% NaCl-bouillon pH 7.2, 25°C, 48 hours, read-out: MIC
Procedure: as §1, §2, §3

[15] = test system: goldfish; assay: Oral toxicity in goldfish; assay type: in vivo; settings: 10% in diet (PA 800, AT-1493 955, AT-1557 935, AT-1475 923 mg/kg)
Procedure: A diet containing 10% of each of the test compounds was given orally to groups each consisting of 5 goldfish each weighing 6 to 10 g, and observation was made for the following 7 days. The temperature of the water was maintained at 28°C.

[16] = test system: Aeromonas liquefaciens Y-62; assay: Bathing effect against Aeromonas infection in goldfish; assay type: in vivo; settings: for Percent survival: 5 days; for Number of survival after 1 day / Number of survival after 2 days / Number of survival after 3 days / Number of survival after 4 days / Number of survival after 5 days: day 0: 6 fish
Procedure: Goldfish each weighing about 8 g were infected intramuscularly with Aeromonas liquefaciens Y-62 (10^7 germs/fish) under ether anesthesia. The fish were grouped and each group was placed in 6 liters of fresh water (23° to 27°C.) containing PA in the amount indicated in Table 3.
Then, observation was made for the following 5 days. In the same manner, the control group was placed in 6 liters of fresh water without any test compound incorporated in it.

[17] = test system: Aeromonas liquefaciens Y-62; assay: Oral administration to eels after Aeromonas infection; assay type: in vivo, eels (Anguilla Japonica); settings: oral 3.1 mg/kg/day at 4 hours after infection and next day; seventh day
Procedure: Groups of eels (Anguilla Japonica, average weight 100 g) (each group consisting of 50 eels) were infected intramuscularly with Aeromonas liquefaciens Y-62 (10^9 germs/fish). A suspension consisting of a diet containing PA was orally administered to the eels at 4 hours after the infection and on the next day, using a catheter, at a dose of 3.1 mg/kg/day.
The temperature of the water was kept at 25° to 26°C. during the entire experimental period.

[18] = Bathing toxicity in goldfish; assay type: in vivo; settings: fresh water; goldfish, bathing for 5 days, 27° to 30°C; read-out: LC50 (50% lethal concentration)
Procedure: (§4) Groups of goldfish each weighing 7 to 8 g (each group consisting of 6 goldfish) were placed in 6 liters of fresh water (27° to 30°C.) containing PA in varying concentrations with aeration for 5 days. During this time, observation was made.

[19] = test system: goldfish; assay: Bathing toxicity in goldfish; assay type: in vivo; settings: for Mortality: 5 days; for Number of the survival after 1 day / Number of the survival after 2 days / Number of the survival after 3 days / Number of the survival after 4 days / Number of the survival after 5 days: day 0: 6 fish
Procedure: as §4

**Q.** Which results are given for `CCn1cc(C(=O)O)c(=O)c2cnc(N3CCCC3)nc21` [PA, 5,8-dihydro-2-pyrrolidino-8-ethyl-5-oxopyrido[2,3-d]pyrimidine-6-carboxylic acid]?
**A.** MIC [1]: 1 µg/mL (≈ 3.47 µM); MIC [2]: 0.1 µg/mL (≈ 0.347 µM); MIC [3]: 1 µg/mL (≈ 3.47 µM); MIC [4]: 1 µg/mL (≈ 3.47 µM); MIC [5]: 0.1 µg/mL (≈ 0.347 µM); MIC [6]: 0.3 µg/mL (≈ 1.04 µM); MIC [7]: 1 µg/mL (≈ 3.47 µM); MIC [8]: 0.1 µg/mL (≈ 0.347 µM); MIC [9]: 0.3 µg/mL (≈ 1.04 µM); MIC [10]: 0.1 µg/mL (≈ 0.347 µM); MIC [11]: 3 µg/mL (≈ 10.4 µM); MIC [12]: 0.1 µg/mL (≈ 0.347 µM); MIC [13]: 0.3 µg/mL (≈ 1.04 µM); MIC [14]: 3 µg/mL (≈ 10.4 µM); Mortality ([15]; 7 days): 0%; Number of the survival after 1 day from administration ([15]; day 0: 5 fish): 5; Number of the survival after 2 days from administration ([15]; day 0: 5 fish): 5; Number of the survival after 3 days from administration ([15]; day 0: 5 fish): 5; Number of the survival after 4 days from administration ([15]; day 0: 5 fish): 5; Number of the survival after 5 days from administration ([15]; day 0: 5 fish): 5; Number of the survival after 6 days from administration ([15]; day 0: 5 fish): 5; Number of the survival after 7 days from administration ([15]; day 0: 5 fish): 5; Percent survival ([16]; bathing conc. 0.5 μg/ml): 100%; Number of survival after 1 day ([16]; bathing conc. 0.5 μg/ml): 6; Number of survival after 2 days ([16]; bathing conc. 0.5 μg/ml): 6; Number of survival after 3 days ([16]; bathing conc. 0.5 μg/ml): 6; Number of survival after 4 days ([16]; bathing conc. 0.5 μg/ml): 6; Number of survival after 5 days ([16]; bathing conc. 0.5 μg/ml): 6; Percent survival ([16]; bathing conc. 1 μg/ml): 100%; Number of survival after 1 day ([16]; bathing conc. 1 μg/ml): 6; Number of survival after 2 days ([16]; bathing conc. 1 μg/ml): 6; Number of survival after 3 days ([16]; bathing conc. 1 μg/ml): 6; Number of survival after 4 days ([16]; bathing conc. 1 μg/ml): 6; Number of survival after 5 days ([16]; bathing conc. 1 μg/ml): 6; rate of survival [17]: 100%; LC50 at 120 h [18]: 10.1 µg/mL (≈ 35.1 µM); Mortality ([19]; bathing conc. 4 μg/ml): 0%; Number of the survival after 1 day ([19]; bathing conc. 4 μg/ml): 6; Number of the survival after 2 days ([19]; bathing conc. 4 μg/ml): 6; Number of the survival after 3 days ([19]; bathing conc. 4 μg/ml): 6; Number of the survival after 4 days ([19]; bathing conc. 4 μg/ml): 6; Number of the survival after 5 days ([19]; bathing conc. 4 μg/ml): 6; Mortality ([19]; bathing conc. 8 μg/ml): 20%; Number of the survival after 1 day ([19]; bathing conc. 8 μg/ml): 6; Number of the survival after 2 days ([19]; bathing conc. 8 μg/ml): 6; Number of the survival after 3 days ([19]; bathing conc. 8 μg/ml): 5; Number of the survival after 4 days ([19]; bathing conc. 8 μg/ml): 5; Number of the survival after 5 days ([19]; bathing conc. 8 μg/ml): 5; Mortality ([19]; bathing conc. 16 μg/ml): 100%; Number of the survival after 1 day ([19]; bathing conc. 16 μg/ml): 6; Number of the survival after 2 days ([19]; bathing conc. 16 μg/ml): 6; Number of the survival after 3 days ([19]; bathing conc. 16 μg/ml): 1; Number of the survival after 4 days ([19]; bathing conc. 16 μg/ml): 0
